# Legend:
# [1] = test system: intracranial tumor; conditions: BNCT, beam directed to surgically exposed intracranial tumor, Japan 1968; cited from earlier work
# [2] = test system: U343MG cells; experiment: Uptake of boron compounds in U343MG cells in vitro (Example 7); type: cell-based; conditions: 2.5 mM in HBSS, two (2) hrs; for uptake (boron) in U343MG cells: 37° C., boron by ICP-OES
# Method: (§1) In this experiment, the uptake of BPA, FBH FBF, and LBH was carried out to determine which compounds show greater uptake FaDu and U343MG cells. The following protocols were used. Briefly, two (2) assays were performed, one using FaDu cells and the other using U343MG cells. FaDu and U343MG cells were harvested and washed with PBS twice. The count was adjusted to 2 million/ml in HBSS. Boron compounds were added to cells at the final concentration of 2.5 mM in HBSS and the cells were incubated at 37° C., in a humidified 5% CO2 atmosphere for two (2) hrs. with shaking. Following a two (2) hour incubation, cells were harvested and washed twice with ice cold PBS. Cells were then suspended in 1 ml ice cold PBS and a portion (50 μl) was lysed in RIPA buffer and protein content determined by BCA assay. The remaining portion (950 μl) was subjected to nitric acid lysis (66.7% acid at 80° C.). Boron measurements were carried out using ICP-OES. Boronophenylalanine (as fructose solution) was used as a control.
# [3] = test system: FaDu cells; experiment: Uptake of boron compounds in FaDu cells in vitro (Example 7); type: cell-based; conditions: 2.5 mM in HBSS, two (2) hrs; for uptake (boron) in FaDu cells: 37° C., boron by ICP-OES, FaDu compared with U343MG
# Method: as §1
# [4] = test system: FaDu cells; experiment: Uptake of boron compounds in FaDu cells in vitro (Example 6); type: cell-based; conditions: 2.5 mM in HBSS, 37° C., two (2) hrs, boron by ICP-OES; compared with BPA (fructose solution)
# Method: as §1, with “The” for “In this experiment, the uptake of BPA, FBH FBF, and LBH was carried out to determine which compounds show greater uptake FaDu and U343MG cells. The”, “Briefly,” for “Briefly, two (2) assays were performed, one using”, “FaDu” for “FaDu cells and the other using U343MG cells. FaDu and U343MG”
compound,measurement,setting,value
un-decahydrododecaborane thiol [BSH],5-year survival rate,[1],58%
"N[C@@H](Cc1ccccc1)B(O)O [FBH, L-phenylalanine boronic acid]",uptake (boron) in U343MG cells,[2],sufficient level uptake
same,uptake (boron) in FaDu cells,[3],slightly lower uptake
"N[C@@H](Cc1ccc(B(O)O)cc1)C(=O)O [BPA, 4-Borono-L-phenylalanine, reference compound]",uptake (boron) in U343MG cells,[2],sufficient level uptake
same,uptake (boron) in FaDu cells,[3],slightly lower uptake
"N[C@@H](Cc1ccccc1)[B-](F)(F)F.[K+] [FBF, [(1R)-1-amino-2-phenylethyl]trifluoroboranuide]",uptake (boron) in U343MG cells,[2],sufficient level uptake
same,"uptake relative to the other compounds, U343MG cells","[2]; versus BPA, FBH, LBH",marginally greater uptake than the other compounds
same,uptake (boron) in FaDu cells,[3],slightly lower uptake
same,"uptake relative to the other compounds, FaDu cells","[3]; versus BPA, FBH, LBH",marginally greater uptake than the other compounds
"CC(C)C[C@H](N)B(O)O [LBH, L-leucine boronic acid]",uptake (boron) in FaDu cells,[4],lower
same,uptake (boron) in U343MG cells,[2],sufficient level uptake
same,uptake (boron) in FaDu cells,[3],slightly lower uptake

# — patent US20250059215A1, “Trifluoroborate (BF3) Compositions For Use In Boron Neutron Capture Therapy and Methods Thereof” (TAE Life Sciences LLC, priority 2023, published 2025)
